Data on 82 compounds can be found in US10940139B2, “Compounds that interact with the Ras superfamily for the treatment of cancers, inflammatory diseases, rasopathies, and fibrotic disease” (Shy Therapeutics LLC, priority 2017, dated 2021).

Sequence of KRas G12D/Q61H double mutant (P01116-2 other isoform, or with tags, fused parts or gaps G12D/Q61H): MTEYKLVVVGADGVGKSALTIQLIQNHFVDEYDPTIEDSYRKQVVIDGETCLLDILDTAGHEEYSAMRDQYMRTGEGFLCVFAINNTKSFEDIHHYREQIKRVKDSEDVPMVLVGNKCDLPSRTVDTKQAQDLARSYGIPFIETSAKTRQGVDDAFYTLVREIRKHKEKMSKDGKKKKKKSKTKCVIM

The first experiment deals with KRas G12D/Q61H double mutant (Homo sapiens (Human), UniProt P01116, G12D/Q61H). Kind of experiment: Ras GTP binding domain inhibition assay (labeled GTP). To be noted: 20 μM compound; KRas G12D/Q61H double mutant; read-out: % Inhibition at 20 μM of K-Ras mutant and wild-type protein, KRas G12D Q61H. In short, it runs like this:
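Labelled-GTP binding: plate-captured His-KRas protein was pre-exposed to compound for 3 h at room temperature (single 20 μM point or dilution series, 1% DMSO, Tris pH 7.5/MgCl2/DTT buffer). Cy3- or Cy5-GTP was then added for 45 min. Washed wells were read for retained fluorescence to give inhibition or IC50.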
On to `COC(=O)c1ccc(Oc2ccc(S(=O)(=O)N3CCCCC3)cc2NCc2cc(C)on2)cc1`, for which the inhibition at 20 µM fell in the range of 25 to 50%.

For `Clc1ccccc1SCCCSc1nnc(N2CCCC2)s1`, the inhibition at 20 µM is 25 to 50%.

Turning to `CCSC1CCCCC1NCc1nc(-c2ccc(OC(F)F)c(OC)c2)no1` (stereo not shown), the inhibition at 20 µM was in the range of 25 to 50%.

On to `CCOC(=O)c1c(-c2ccc(Br)cc2)csc1/N=C/N(C)C`, for which the inhibition at 20 µM was in the range of 25 to 50%.

In the case of `COCCNc1ccc([N+](=O)[O-])cc1C(=O)OCCOc1ccccc1`, the inhibition at 20 µM lay within 25 to 50%.

Take `CCCN(CC1CC1)C(=O)COC(=O)c1c(C)nc(-c2cccs2)nc1SC`: the inhibition at 20 µM was 1 to 25%.

Consider `Cc1ccc(C(=O)Oc2cccc(C3CN(C(=O)c4ccc(C)s4)CCO3)c2)s1` (stereo not shown), for which the inhibition at 20 µM lay within 1 to 25%.

With `O=C(c1ccoc1)N1CCC(Nc2cc(Cl)ccc2OCC2CCC2)CC1`, the inhibition at 20 µM was in the range of 25 to 50%.

`O=[N+]([O-])c1cc(C(F)(F)F)ccc1NCc1ccc2c(c1)OCCCO2`: the inhibition at 20 µM fell in the range of 25 to 50%.

With `CCOC(=O)c1c(NC(=O)c2c(N)n(CCCOC)c3nc4ccccc4nc23)sc2c1CCCC2`, the inhibition at 20 µM was 1 to 25%.

As to `O=C(c1ccc(CSc2nc3ccccc3[nH]2)cc1)N1N=CCC1(O)C(F)(F)F` (stereo not shown), the inhibition at 20 µM is 25 to 50%.

For `CN(C)S(=O)(=O)c1cccc(CSCCOc2cccc(Cl)c2)c1`, the inhibition at 20 µM lay in the range of 25 to 50%.

Regarding `CC1CCCN(c2nc(-c3ccc(O)cc3O)cs2)C1` (stereo not shown), the inhibition at 20 µM lay within 25 to 50%.

In the case of `COC(=O)C(NCc1ccc(-c2ccc(Cl)cc2)o1)c1ccccc1` (stereo not shown), the inhibition at 20 µM lay within 25 to 50%.

On to `O=c1[nH]c(CN(CCc2ccc(Cl)cc2)Cc2nc3ccsc3c(=O)[nH]2)nc2ccsc12`, for which the inhibition at 20 µM was in the range of 25 to 50%.

In the case of `Cc1nc2ccccc2n1CCNC(=O)c1cc(S(=O)(=O)N(C)C)ccc1N1CCOCC1`, the inhibition at 20 µM fell in the range of 1 to 25%.

On to `CN(Cc1ccccc1C#N)Cc1ccccc1N1CCCCC1`, for which the inhibition at 20 µM lay within 25 to 50%.

Take `CCCOc1ccc2ccccc2c1CN(C)C(=O)C1CCCN(c2ncccn2)C1` (stereo not shown): the inhibition at 20 µM lay in the range of 25 to 50%.

Turning to `O=C(COC1CCCCC1)Nc1nnc(-c2ccccn2)[nH]1`, the inhibition at 20 µM was in the range of 51 to 75%.

As for `O=C(CN(Cc1csc(COc2ccc(F)cc2)n1)Cc1ccco1)Nc1ccccc1`, the inhibition at 20 µM was 25 to 50%.

Regarding `CCN(C(=O)CCc1c(C)nc(-c2ccccn2)nc1O)C1CCCC1`, the inhibition at 20 µM lay within 51 to 75%.

In the case of `COc1cc(CN(C)C(=O)Cc2ccc(Br)cc2)ccc1OCc1ccccc1`, the inhibition at 20 µM is 1 to 25%.

The experiment is the same for the next values; noted with them: 20 μM compound; read-out: % Inhibition at 20 μM KRas G12D Q61H.
Turning to `COCCn1c(SCc2csc(-c3ccccc3)n2)nc2ccccc21`, the inhibition at 20 µM was in the range of 25 to 50%.

Turning to `Cn1ccnc1COc1ccc(C(=O)Nc2nnc(-c3ccccn3)[nH]2)cc1`, the inhibition at 20 µM is 25 to 50%.

In the case of `CC(C)N(Cc1ccccn1)Cc1nc2ccccc2n1C(F)F`, the inhibition at 20 µM was 1 to 25%.

In the case of `COc1cc(COCC(=O)Nc2ccnc(-c3ccccn3)n2)ccn1` [drawing 2813], the inhibition at 20 µM was 25 to 50%.

Turning to `Nc1nc(O)c2scc(Br)c2n1` [drawing 2657], the inhibition at 20 µM is 1 to 25%.

For `Cc1ccc(C)c(OCC(O)CN(c2nccs2)S(=O)(=O)c2ccccc2)c1` (stereo not shown), the inhibition at 20 µM lay in the range of 1 to 25%.

Consider `CN(Cc1nnc(-c2ccccc2Cl)o1)Cc1ccccc1N1CCCC1`, for which the inhibition at 20 µM fell in the range of 1 to 25%.

Regarding `COc1ccc(CN2CCN(C(=O)c3csc4c(O)nc(-c5ccccn5)nc34)CC2)cc1` [drawing 2725], the inhibition at 20 µM is 25 to 50%.

In the case of `O=C(c1csc2c(O)nc(-c3ccccn3)nc12)N1CCNC(c2ccccc2)C1` (stereo not shown), the inhibition at 20 µM fell in the range of 25 to 50%.

As for `O=C(c1csc(-c2ncccn2)n1)N1CCC(c2ccc(O)cc2)CC1`, the inhibition at 20 µM was 1 to 25%.

Regarding `O=C1NCCCC1Nc1cc(C(F)(F)F)nc(-c2ccccn2)n1` (stereo not shown), the inhibition at 20 µM fell in the range of 1 to 25%.

As for `CN1CCC(C(=O)Nc2nnc(-c3ccccn3)[nH]2)CC1=O` (stereo not shown), the inhibition at 20 µM is 25 to 50%.

Regarding `CCOC(=O)NC1CCN(C(=O)c2csc3c(O)nc(-c4ccccn4)nc23)CC1` [drawing 2685], the inhibition at 20 µM lay within 51 to 75%.

With `O=C(c1cc(-c2ccccc2)nn1-c1ccccc1)N(Cc1nnc(-c2ccccc2Cl)o1)C1CC1`, the inhibition at 20 µM lay within 25 to 50%.

In the case of `CCN(Cc1ccc(S(=O)(=O)N(C)C)o1)c1ccccc1`, the inhibition at 20 µM lay within 25 to 50%.

Consider `CCOC(=O)c1sc(N(C2CC2)S(=O)(=O)c2cc(F)ccc2C)nc1C`, for which the inhibition at 20 µM fell in the range of 25 to 50%.

Consider `FC(F)(F)c1csc2nc(-c3ccccn3)nc(N3CCOCC3)c12` [drawing 2741], for which the inhibition at 20 µM was 1 to 25%.

Consider `Cc1cnn(CCC(=O)Nc2nnc(-c3ccccn3)[nH]2)c1`, for which the inhibition at 20 µM is 25 to 50%.

Regarding `CC1(N)CCN(C(=O)c2csc3c(O)nc(N)nc23)CC1`, the inhibition at 20 µM is 1 to 25%.

As to `CCOc1ccc(NC(=O)CN(C)Cc2coc(-c3ccc(C)cc3C)n2)cc1OCC`, the inhibition at 20 µM fell in the range of 1 to 25%.

For `Cc1sc(C2CC2)nc1-c1ccc(F)c(F)c1`, the inhibition at 20 µM was 25 to 50%.

For `O=c1nc(-c2ccccn2)[nH]c2scc(-c3ccco3)c12`, the inhibition at 20 µM lay within 25 to 50%.

Consider `CCc1cc(NNC(=O)C2CC2)nc(-c2ccccn2)n1`, for which the inhibition at 20 µM is 1 to 25%.

Take `CCc1cc(NNC(=O)c2ccc(C)s2)nc(-c2ccccn2)n1`: the inhibition at 20 µM lay within 25 to 50%.

In the case of `CCN(CC)S(=O)(=O)c1ccc(N2CCCC2)c(C(=O)NCCCn2cnc3ccccc32)c1`, the inhibition at 20 µM lay within 25 to 50%.

In the case of `C=CCCOC(C)C(=O)Nc1nnc(-c2ccccn2)[nH]1` (stereo not shown), the inhibition at 20 µM lay in the range of 25 to 50%.

For `CN(Cc1nc2ccccc2n1C)C(=O)c1cccc(Cl)n1`, the inhibition at 20 µM was in the range of 1 to 25%.

In the case of `COc1cc2c(cc1OC)CCN(C(=O)c1csc3c(O)nc(N)nc13)CC2` [drawing 2672], the inhibition at 20 µM was in the range of 25 to 50%.

Regarding `CC(C)CCS(=O)(=O)CC(=O)Nc1nnc(-c2ccccn2)[nH]1`, the inhibition at 20 µM fell in the range of 25 to 50%.

Turning to `Cc1nc(CC(=O)Nc2nnc(-c3ccccn3)[nH]2)cs1`, the inhibition at 20 µM fell in the range of 25 to 50%.

Take `O=C(Nc1ccc(N2CCOCC2)cc1)c1ccccc1OCCOc1ccccc1`: the inhibition at 20 µM lay in the range of 1 to 25%.

As to `CN(CCc1ccncc1)C(=O)c1csc2c(O)nc(-c3ccccn3)nc12` [drawing 2688], the inhibition at 20 µM was 25 to 50%.

Regarding `Oc1nc(-c2ccccn2)nc2c(C3CCNCC3)csc12` [drawing 2711], the inhibition at 20 µM fell in the range of 51 to 75%.

As to `O=C(Nc1nnc(-c2ccccn2)[nH]1)c1ccc(Cn2cncn2)cc1`, the inhibition at 20 µM lay in the range of 25 to 50%.

Regarding `CCn1c(SCc2csc(-c3cccc(OC)c3OC)n2)nc2cc(S(N)(=O)=O)ccc21`, the inhibition at 20 µM was in the range of 25 to 50%.

In the case of `COc1ccc(OC)c(-c2csc(C3CC3)n2)c1`, the inhibition at 20 µM was in the range of 25 to 50%.

For the compound `O=C(CCN1C(=O)NC2(CCCCC2)C1=O)Nc1nnc(-c2ccccn2)[nH]1`, the inhibition at 20 µM is 1 to 25%.

Turning to `CCCCCCNC(=O)c1cc(S(=O)(=O)N(C)C)ccc1N1CCOCC1`, the inhibition at 20 µM lay within 1 to 25%.

Still in this experiment, the particulars now being: 20 μM; read-out: KRas G12D Q61H % Inh.
Turning to `CN(CC(=O)Nc1nnc(-c2ccccn2)[nH]1)S(C)(=O)=O` [drawing 2496], the inhibition at 20 µM was in the range of 51 to 75%.

`O=C(Nc1nnc(-c2ccccn2)[nH]1)c1ccc(NC(=O)c2ccccn2)cc1` [drawing 2528]: the inhibition at 20 µM was 51 to 75%.

As to `O=C(COc1ccc(F)cc1F)Nc1nnc(-c2ccccn2)[nH]1` [drawing 2458], the inhibition at 20 µM is 51 to 75%.

With `COCCCn1ccc(Nc2cc(C)nc(-c3ccccn3)n2)n1` [drawing 2606], the inhibition at 20 µM lay within 51 to 75%.

For `Cn1ccc(C(=O)Nc2nnc(-c3ccccn3)[nH]2)cc1=O` [drawing 2476], the inhibition at 20 µM lay in the range of 25 to 50%.

Take `CC(COCc1ccccc1)C(=O)Nc1nnc(-c2ccccn2)[nH]1` (stereo not shown) [drawing 2517]: the inhibition at 20 µM was in the range of 51 to 75%.

With `O=C(Nc1nnc(-c2ccccn2)[nH]1)c1nc(N2CCOCC2)ncc1Cl` [drawing 2508], the inhibition at 20 µM lay within 51 to 75%.

Consider `COC(=O)C(C)CN(Cc1ccccc1)c1nc(C(F)(F)F)ccc1C#N` (stereo not shown) [drawing 2631], for which the inhibition at 20 µM was in the range of 25 to 50%.

As to `Cc1c(C(=O)Nc2nnc(-c3ccccn3)[nH]2)oc2ccccc12` [drawing 2465], the inhibition at 20 µM lay in the range of 51 to 75%.

Regarding `O=C(Nc1nnc(-c2ccccn2)[nH]1)c1csc(-c2ccco2)n1` [drawing 2546], the inhibition at 20 µM was 51 to 75%.

`O=C(CCc1cnn(-c2ccccc2)c1)Nc1nnc(-c2ccccn2)[nH]1` [drawing 2450]: the inhibition at 20 µM is 51 to 75%.

On to `O=C(Cn1cnc2ccccc2c1=O)Nc1nc(-c2ccccn2)cs1` [drawing 2574], for which the inhibition at 20 µM is 25 to 50%.

In the case of `O=C(Cc1cccc(F)c1)Nc1nc(-c2ccccn2)cs1` [drawing 2577], the inhibition at 20 µM was 25 to 50%.

Take `O=C(Nc1nnc(-c2ccccn2)[nH]1)C1CC1c1ccc(F)cc1` (stereo not shown) [drawing 2520]: the inhibition at 20 µM is 51 to 75%.

For the compound `O=C(COCc1ccccc1Cl)Nc1nnc(-c2ccccn2)[nH]1` [drawing 2519], the inhibition at 20 µM was in the range of 51 to 75%.

Regarding `CCOc1cc(C(=O)Oc2c(C)ccc(C)c2C)cc(OCC)c1OCC` [drawing 2622], the inhibition at 20 µM is 51 to 75%.

For `O=c1nc(-c2ccccn2)[nH]c2scc(-c3cccs3)c12` [drawing 2583], the inhibition at 20 µM fell in the range of 51 to 75%.

On to `CCc1cc(NNC(=O)c2ccc(C#N)cc2)nc(-c2ccccn2)n1` [drawing 2605], for which the inhibition at 20 µM was in the range of 51 to 75%.

Take `FC(F)(F)Sc1ccc(Cc2ccc(SC(F)(F)F)cc2)cc1` [drawing 2616]: the inhibition at 20 µM was 51 to 75%.

On to `Cc1nc(-c2ccccn2)nc(O)c1CCC(=O)Nc1ccc(C(C)C)cc1` [drawing 2598], for which the inhibition at 20 µM is 51 to 75%.

The experiment is the same for the next values; noted with them: at 20 μM; read-out: KRas G12D Q61H % Inh.
`O=C(c1csc2c(O)nc(-c3ccccn3)nc12)N1CCNC(c2ccc(Cl)cc2)C1` (stereo not shown) [drawing 3843]: the inhibition at 20 µM was in the range of 25 to 50%.

With `COc1cnc(CNC(=O)c2c(C)sc3c(O)nc(-c4ccccn4)nc23)[nH]c1=O` [drawing 3841], the inhibition at 20 µM turned out to be 0%.
